The target of one test is BRD4-BD1 (Homo sapiens (Human), UniProt O60885). Nature of the test: BRD4 biochemical activity test (TR-FRET), BD1. To be noted: read-out: BRD4 Binding (BD1), IC50. From the text: (§1) BRD4 Biochemical Activity Test
(§2) 1) BRD4-BD1 and BRD4-BD2 proteins of BPS Company, polypeptide of ANASPEC Company, and test reagent of PerkinElmer Company were used in the experiments;
(§3) 2) The TR-FRET experimental principle was used in the experiment to screen compounds.
(§4) 3) Relevant control compounds
(§5) 1) Preparation of the Compound Plate:
(§6) Preparation of the compound plate in the experiment was achieved by Echo:
(§7) 2) Preparation of Reaction Reagents:
(§8) Relevant reaction reagents should be prepared on the day of the experiment:
(§9) a) Formulation of 1× assay buffer;
(§10) b) Formulation of 3× component solution for the experiment: […]
(§11) 1. The reagent was taken out and placed on ice to naturally melt for later use;
(§12) 2. “Solution A” (protein solution), “solution B” (polypeptide solution), and “solution C” (test reagent solution) used in the experiment were formulated with the 1× assay buffer, and during the formation of the 3× solution from the components used in the experiment reaction system, the amounts of solutions A, B and C must be enough for the required amounts in the experiment.
(§13) 3) Experimental Operation Steps:
(§14) The experiment plate was a plate that contained a gradient concentration of the compound and a corresponding DMSO solution and was prepared with ECHO before the experiment:
(§15) a) The experiment plate was taken out, and 5 μL/well of “solution A” (protein solution) was added to columns 2-23 of the experiment plate, then 5 μL/well of 1× assay buffer was added to columns 1 and 24 of the experiment plate, and columns 1 and 24 were used as Min control in the experiment system;
(§16) b) Centrifugation at 1000 rpm was carried out for 30 seconds;
(§17) c) The plate was incubated at 23° C. for 20 minutes;
(§18) d) After 20 minutes of incubation, 5 μL/well of “solution B” (polypeptide solution) was added to columns 1-24 of the experiment plate;
(§19) e) Centrifugation at 1000 rpm was carried out for 30 seconds;
(§20) f) The plate was incubated at 23° C. for 20 minutes;
(§21) g) After 20 minutes of incubation, 5 μL/well of “solution C” (test reagent solution) was added to columns 1-24 of the experiment plate;
(§22) h) Centrifugation at 1000 rpm was carried out for 30 seconds;
(§23) i) The plate was incubated at 23° C. for 40 minutes;
(§24) j) The experiment plate was placed on EnVision to read the plate.
(§25) a) The corresponding Max control and Min control of each experiment plate were used to convert to the Z′ value of the experiment plate, and the Z′ value of each plate was ensured to be >0.5;
(§26) b) The IC50 value was calculated from the signal of the control compound by XLFIT5, and ensured to be maintained within 3 times of the average value of historical data.
For orientation: TR-FRET usually uses a lanthanide donor and a delayed reading to cut background.

The next test concerns the target BRD4-BD2 (Homo sapiens (Human), UniProt O60885). In words: BRD4 biochemical activity test (TR-FRET), BD2. The conditions noted are these: read-out: BRD4 Binding (BD2), IC50.
Excerpt: as §1, §2, §3, §4, §5, §6, §7, §8, §9, §10, §11, §12, §13, §14, §15, §16, §17, §18, §19, §20, §21, §22, §23, §24, §25, §26

Here are results for 26 compounds from patent publication US11312726B2, “Thienodiazepine derivatives and application thereof” (priority 2017, dated 2022).

The IC50 is the point on the concentration scale where inhibition reaches its midpoint. Turning to `Cc1cc2c(cc1NC(=O)C[C@@H]1N=C(c3ccc(Cl)cc3)c3c(sc(C)c3C)-n3c(C)nnc31)COC2` [Compound 26], the IC50 came out at 112 nM on BRD4-BD1 and 30 nM at BRD4-BD2.
On to `Cc1sc2c(c1C)C(c1ccc(Cl)cc1)=N[C@@H](CC(=O)Nc1ccc3c(c1)CN(S(C)(=O)=O)C3)c1nnc(C)n1-2` [Compound 19], for which the IC50 worked out at 49 nM on BRD4-BD1 and 8 nM on BRD4-BD2.
Consider `Cc1sc2c(c1C)C(c1ccc(Cl)cc1)=N[C@@H](CC(=O)Nc1ccc3c(c1)CC(F)(F)C3)c1nnc(C)n1-2` [Compound 21], for which the IC50 was 522 nM on BRD4-BD1 and 34 nM at BRD4-BD2.
Consider `Cc1sc2c(c1C)C(c1ccc(Cl)cc1)=N[C@@H](CC(=O)Nc1ccc3c(c1)CNC3)c1nnc(C)n1-2` [Compound 18], for which the figures for the IC50 on BRD4-BD1 and at BRD4-BD2 were 23 nM and 8 nM, respectively.
Take `Cc1sc2c(c1C)C(c1ccc(Cl)cc1)=N[C@@H](CC(=O)Nc1ccc3c(c1)[C@H]1CC[C@@H]3O1)c1nnc(C)n1-2` [Compound 35]: the half-inhibitory concentration (IC50) on BRD4-BD1 was 155 nM; at BRD4-BD2, 12 nM.
Take `Cc1sc2c(c1C)C(c1ccc(Cl)cc1)=N[C@@H](CC(=O)Nc1ccc3c(c1)C(=O)SC3)c1nnc(C)n1-2` [Compound 22]: the IC50 on BRD4-BD1 was found to be 199 nM; on BRD4-BD2 it was 10 nM.
The corresponding values for `Cc1sc2c(c1C)C(c1ccc(Cl)cc1)=N[C@@H](CC(=O)Nc1n[nH]c(=O)c3ccccc13)c1nnc(C)n1-2` [Compound 8] are 51 nM and 11 nM.
`Cc1sc2c(c1C)C(c1ccc(Cl)cc1)=N[C@@H](CC(=O)Nc1ccc3c(c1C)COC3)c1nnc(C)n1-2` [Compound 25]: the IC50 on BRD4-BD1 is 79 nM; on BRD4-BD2, 20 nM.
Taken in the same sequence, the figures for `Cc1sc2c(c1C)C(c1ccc(Cl)cc1)=N[C@@H](CC(=O)Nc1ccc3c(c1)C[C@@H](F)C3)c1nnc(C)n1-2` [Compound 24] were 206 nM and 17 nM.
In the case of `Cc1sc2c(c1C)C(c1ccc(Cl)cc1)=N[C@@H](CC(=O)Nc1ccc3c(c1)C(=O)NC3=O)c1nnc(C)n1-2` [Compound 36], the IC50 at BRD4-BD1 stood at 126 nM; on BRD4-BD2, 10 nM.
With `CC(=O)N1Cc2ccc(NC(=O)C[C@@H]3N=C(c4ccc(Cl)cc4)c4c(sc(C)c4C)-n4c(C)nnc43)cc2C1` [Compound 17], the IC50 on BRD4-BD1 came out at 24 nM; on BRD4-BD2 it was 7 nM.
In the case of `Cc1sc2c(c1C)C(c1ccc(Cl)cc1)=N[C@@H](CC(=O)Nc1cc3c(cc1Cl)COC3)c1nnc(C)n1-2` [Compound 28], the concentration for half-maximal inhibition (IC50) at BRD4-BD1 stood at 60 nM; at BRD4-BD2, 15 nM.
For `Cc1sc2c(c1C)C(c1ccc(Cl)cc1)=N[C@@H](CC(=O)Nc1ccn3c(=O)c(O)cnc3c1)c1nnc(C)n1-2` [Compound 5], the half-inhibitory concentration (IC50) at BRD4-BD1 was 83 nM; at BRD4-BD2, 9 nM.
Consider `Cc1sc2c(c1C)C(c1ccc(Cl)cc1)=N[C@@H](CC(=O)Nc1ccc3c(c1)CN(C(N)=O)C3)c1nnc(C)n1-2` [Compound 20], for which the half-inhibitory concentration (IC50) on BRD4-BD1 worked out at 169 nM; on BRD4-BD2 it was 11 nM.
In the case of `Cc1sc2c(c1C)C(c1ccc(Cl)cc1)=N[C@@H](CC(=O)Nc1cc3c(cc1F)COC3)c1nnc(C)n1-2` [Compound 29], the IC50 at BRD4-BD1 is 74 nM; on BRD4-BD2, 16 nM.
Taken in the same sequence, the figures for `Cc1sc2c(c1C)C(c1ccc(Cl)cc1)=N[C@@H](CC(=O)Nc1ccc3c(c1)CC1(COC1)C3)c1nnc(C)n1-2` [Compound 27] were 55 nM and 9 nM.
Turning to `Cc1sc2c(c1C)C(c1ccc(Cl)cc1)=N[C@@H](CC(=O)Nc1ccc3c(c1)C1(CC1)C(=O)N3)c1nnc(C)n1-2` [Compound 9], the IC50 on BRD4-BD1 stood at 49 nM; on BRD4-BD2 it was 11 nM.
Taken in the same sequence, the figures for `Cc1sc2c(c1C)C(c1ccc(Cl)cc1)=N[C@@H](CC(=O)Nc1ccc3c(c1)C(=O)NC31CC1)c1nnc(C)n1-2` [Compound 10] were 81 nM and 16 nM.
The corresponding values for `Cc1sc2c(c1C)C(c1ccc(Cl)cc1)=N[C@@H](CC(=O)Nc1ccc3c(c1)C(C)(C)OC3=O)c1nnc(C)n1-2` [Compound 37] are 148 nM and 11 nM.
Turning to `Cc1sc2c(c1C)C(c1ccc(Cl)cc1)=N[C@@H](CC(=O)Nc1ccc3c(c1)CNC3=O)c1nnc(C)n1-2` [Compound 2], the half-maximal inhibitory concentration (IC50) at BRD4-BD1 is 49 nM; at BRD4-BD2, 10 nM.
With `Cc1sc2c(c1C)C(c1ccc(Cl)cc1)=N[C@@H](CC(=O)Nc1ccc3c(c1)C1(CC1)NC3=O)c1nnc(C)n1-2` [Compound 12], the half-maximal inhibitory concentration (IC50) came to 40 nM at BRD4-BD1 and 12 nM on BRD4-BD2.
Turning to `Cc1sc2c(c1C)C(c1ccc(Cl)cc1)=N[C@@H](CC(=O)Nc1ccc3nonc3c1)c1nnc(C)n1-2` [Compound 33], the IC50 at BRD4-BD1 came to 248 nM; on BRD4-BD2, 19 nM.
With `Cc1sc2c(c1C)C(c1ccc(Cl)cc1)=N[C@@H](CC(=O)Nc1ccc3c(c1)OCCOCCOCCO3)c1nnc(C)n1-2` [Compound 31], the IC50 came to 37 nM on BRD4-BD1 and 5 nM on BRD4-BD2.
Consider `Cc1sc2c(c1C)C(c1ccc(Cl)cc1)=N[C@@H](CC(=O)Nc1ccc3c(c1)C(=O)OC3)c1nnc(C)n1-2` [Compound 30], for which the IC50 at BRD4-BD1 was 51 nM; on BRD4-BD2, 9 nM.
With `Cc1sc2c(c1C)C(c1ccc(Cl)cc1)=N[C@@H](CC(=O)Nc1ccc3c(c1)C(=O)NC3)c1nnc(C)n1-2` [Compound 1], the IC50 on BRD4-BD1 is 65 nM; on BRD4-BD2, 11 nM.
As to `Cc1sc2c(c1C)C(c1ccc(Cl)cc1)=N[C@@H](CC(=O)Nc1ccc3c(c1)COC3)c1nnc(C)n1-2` [Compound 16], the IC50 was determined as 60 nM on BRD4-BD1 and 12 nM on BRD4-BD2.
